Test results: patent EP4813986A1, “COMPOUND FOR REDUCING SERUM CONCENTRATION OF RBP4, AND USE” (Heronova Pharmaceuticals, LLC, priority 2023, dated 2025)

How the values were obtained:
RBP4 = target: T1, RBP4 (Mus musculus, UniProt Q00724); assay: Plasma RBP4 content detection test (ELISA) after single oral dose; type: in vivo, ICR male mice; conditions: 5 mg/kg oral, maximum reduction within 5 to 24 hours vs 0-hour value
T1 construct: from tissue; host or cells: plasma of ICR male mice
Description: Test Method: ICR male mice aged 7 to 8 weeks were adaptively fed for 3 to 7 days and randomly divided into groups (4 mice per group), and fasted for 12 hours before the test. Orbital venous blood samples were collected and plasma was separated before administration on the test day (0-hour value as the initial content). Then, test compounds at a dose of 1 mg/kg or 5 mg/kg were orally administered (vehicle: 5% DMSO + 10% cyclodextrin), and vehicle (5% DMSO + 10% cyclodextrin) was orally administered as a control group. Orbital venous blood samples were collected and plasma was separated at 5, 8, 10, 12, and 24 hours after compound administration. The RBP4 content in plasma samples was detected using Mouse RBP4 (Retinol Binding Protein 4, Plasma) ELISA Kit (immunoway, KE1574), the reduction rate was calculated, and the maximum reduction rate within 5 to 24 hours was selected. Reduction rate of RBP4 content in mouse plasma at different sampling time points = (Initial RBP4 content - RBP4 content at sampling point) / Initial RBP4 content. Table 2 Plasma RBP4 Reduction Levels of Different Compounds

[1] = Pharmacokinetic test, single oral dose, plasma LC-MS/MS; type: in vivo; conditions: mouse, single oral dose 10 mg/kg, male ICR mice
Description: Test Method: Three ICR mice (male) were used for each compound, with five groups in total. Mice were treated with a single oral dose of 10 mg/kg or 5 mg/kg. For each mouse, blood samples were collected at 0.25, 0.5, 1, 2, 4, and 8 hours after administration. Whole blood samples were placed in test tubes containing EDTA-K2, inverted up and down several times, and then centrifuged at 6000 rpm, 4°C for 15 minutes to obtain plasma. The concentration of the compound in plasma samples was determined using the LC-MS/MS method. Table 4 Pharmacokinetic Results of Different Compounds

in vitro = conditions: microsomes, pH 7.4
Description: Phosphate buffer preparation: Weigh 7.098 g of disodium hydrogen phosphate, add 500 mL of pure water and dissolve by ultrasonication to obtain a disodium hydrogen phosphate solution. Weigh 3.400 g of potassium dihydrogen phosphate, add 250 mL of pure water and dissolve by ultrasonication to obtain a potassium dihydrogen phosphate solution. The disodium hydrogen phosphate solution and potassium dihydrogen phosphate solution were mixed and adjusted to pH 7.4+0.2.
10 mM NADPH preparation: Weigh an appropriate amount of NADPH (reduced coenzyme II), freshly prepare a 10 mM working solution with phosphate buffer, and the final concentration is 1 mM.
Incubation system preparation: Prepare the suspension into the incubation plate according to Table 5, and pre-incubate in a 37°C water bath for 10 min. Table 5 Incubation System Preparation
2 µL of positive control or test compound working solution was added to 358 µL of the incubation system, mixed uniformly by vortexing, and all samples were prepared in duplicate. 40 µL of 10 mM NADPH was added to the system, mixed uniformly by low-speed vortexing, and the reaction timing was started. […] Centrifuge at 4700 rpm, 4°C for 15 minutes to precipitate proteins. Transfer 100 µL of the supernatant to the sample plate, add 100 µL of pure water and mix well for UPLC-MS/MS analysis. Table 6 Liver Microsome Stability Results

Structure (SMILES): CC(C(N)=O)C(=O)N1CCc2c(C(=O)N3CC=C(c4cccc(F)c4C(F)(F)F)CC3)n[nH]c2C1 (centres unmarked) [Compound 22]
- Maximum Plasma RBP4 Reduction Rate (5 mg/kg dose) (RBP4): 11%
- AUC(0-t) [1]: 13.3 ng·h/mL
- Cmax ([1]; read-out: peak concentration Cmax): 15.2 ng/mL
- Tmax ([1]; read-out: peak time Tmax): 30 min
- half-life at 1 µM (in vitro; human): > 180 min
- microsomal CLint at 1 µM (in vitro; human): < 7.44 µL/min/mg
- half-life at 1 µM (in vitro; mouse): 43 min
- microsomal CLint at 1 µM (in vitro; mouse): 32.2 µL/min/mg
